The nature of data set [1]: Clinical observation of mini-pigs for adverse events / ivermectin toxicity signs. The data set is classed as in vivo, mini-pig. The following applies: oral ivermectin 800 mcg/kg with or without ketoconazole or rifampicin pre-treatment. The procedure:
Six hybrid mini-pigs (2 male, 4 female) weighing between 46 and 70 kg were procured from our accredited breeding centre at the University of Navarra. They were housed individually throughout the study at the animal research facilities in the University of Navarra. From arrival onward, the animals were assessed daily for general wellbeing and after the intervention, also for specific ivermectin toxicity signs.

A short description of data set [2]: Drug-drug interaction study: ivermectin plasma pharmacokinetics in mini-pigs. To be noted: for AUC inf, Median (Range) / Cmax, Median (Range) / AUC > LD50, Median (Range) / Time > LD50, Median (Range): group median (range); for AUC inf, Median (Range) / Cmax, Median (Range): plasma ivermectin, single oral 800 mcg/kg; for AUC inf, Median (Range) / Cmax, Median (Range) / AUC > LD50, Median (Range) / Time > LD50, Median (Range) / Time > LD50: treatment group as in the label; for AUC > LD50, Median (Range): area under the plasma ivermectin curve above 6 ng/ml; for AUC > LD50, Median (Range) / Time > LD50, Median (Range) / Time > LD50: oral 800 mcg/kg; for Time > LD50, Median (Range): time plasma ivermectin is above 6 ng/ml; for Time > LD50: individual mini-pig, time plasma ivermectin is above 6 ng/ml (10-day LC50 for Anopheles gambiae). Here is the method: (§1) The experiments were conducted following a randomised crossover design (Fig. 1). In phase I all mini-pigs received a single 800 mcg/kg dose of oral ivermectin and sampling was done as described below. […] The total wash-out period between ivermectin doses was 30 days. […] Inhibiting the P-gp could theoretically lead to toxicity due to abnormal accumulation of the drug in the brain[30], [31]. […] Irrespectively of this, drug quantification in cerebrospinal fluid (CSF) was added as an additional safety point. Rifampicin a CYP/P-gp inducer[49] was included as we expected to see reduced bioavailability and penetration into CSF.
The pre-medication drugs were administered by crushing the tablets and mixing them with canned meat products used for enrichment. For ivermectin administration and sampling during the first 8 hours, the animals were sedated with a single intramuscular dose of tiletamine-zolazepan (4 mg/kg) and maintained with inhalatory isoflurane (1.5–2%). In pigs, there is no evidence of a significant interaction (other than being a substrate) of these drug classes with the CYP3A4 or the P-gp[80]. Ivermectin was administered via nasogastric tube.
For blood sampling during the first eight hours, a femoral line was left in place and later removed during recovery from anaesthesia. Blood sampling thereafter was done by jugular puncture under restrain. […] For the mosquito bioassay, additional serum samples were obtained at every time point, and frozen at −20 °C.
Blood samples were drawn in 3 ml EDTA tubes and centrifuged. Plasma was separated and frozen at −20 °C until analysis. CSF samples were frozen at −20 °C.
(§2) Ivermectin levels in plasma and CSF were determined using a validated adaptation of a previously described HPLC-FLD[82]. The detection limit in plasma and CSF was 0.1 ng/ml, the quantification limit was 0.5 ng/ml.
Pharmacokinetic analyses were performed using Phoenix WinNonlin 6.4 (Certara, Princeton, NJ, USA). Pharmacokinetic parameters were derived from non-compartmental analyses.
The comparison of PK parameters between ivermectin groups was done by means of a two-sided Mann-Whitney test.

The conditions of data set [3]: minipig, in vivo. The procedure: as §1
For obtaining CSF samples during the first 8 hours, an intrathecal catheter was placed by means of fluoroscopy-guided lateral lumbar puncture[81] (Fig. 5). Given the challenges posed by the particular anatomy of the pig, efforts were done to tunnel the intrathecal catheter and connect it to a subcutaneous reservoir in order to avoid repeating the technically demanding lumbar puncture during phase II of the study (Fig. 5). […] Sampling points for CSF were: pre-treatment and at 0.5, 1, 2, 3, 4, 5, 6, 7 and 8 hours. […]
as §2

The test system of data set [4] is Anopheles gambiae. In words: Synergistic mosquito bioassay: membrane feeding with mini-pig serum samples, mortality follow-up. The data set is classed as in vivo, Anopheles gambiae s.s. The following applies: for Mean survival / Time to median mortality: Anopheles gambiae, membrane feeding. Here is the method: Mosquitoes were membrane fed with reconstituted blood as described by Bousema et al.[51].
Since mosquitoes grouped in cups for feeding, we used a cluster design in which the unit of intervention was mosquito cups. Our primary outcome was mean 10-day mosquito mortality after membrane feeding. Sample size calculations were conducted according to the method described by Gangnon and Kosorok[52]. The minimum expected 10-day mortality in mosquitoes imbibing blood containing 9.9 ng/ml of ivermectin is 66%; this is based on the predictive function described by Ouedraogo et al.[50]. Based on previous observations and with all mosquitoes having the same colony origin and age range, we chose a conservative intracluster correlation of 0.15. The frailty variance of clusters was resembled by a gamma of 1. All experiments were performed in triplicate. With these parameters, at least 4 clusters of 44 mosquitoes were needed per arm to achieve 80% power at 5% significance level accounting for 10% non-feeders.
Baseline serum samples collected before ivermectin treatment in ketoconazole and naïve pigs were used as controls. These samples were shipped frozen to the insectary facilities of the Ifakara Health Institute in Bagamoyo, Tanzania for membrane feeding assays. It was hypothesised that induction of the mosquito CYP/P-gp by rifampicin could improve survival in presence of ivermectin, but this could not be tested due to a reduced absorption of ivermectin in the mini-pigs pre-treated with rifampicin (see below).
For all experiments, we used the fully susceptible Anopheles gambiae s.s. colony maintained at the insectary in Bagamoyo. Mosquitoes were reared at 28 °C, 80% humidity and with a photoperiod of 12:12. Larvae were kept in large plastic bowls covered with netting containing approximately 2 litres of water with larval densities not exceeding one 4th instar larvae per ml. Larvae were fed Tetramine fish flakes ad libitum. Once they developed into pupae these were collected using disposable plastic Pasteur pipettes and transferred to small bowls containing approximately 200 ml of clean water. The pupae bowls were then placed inside fully screened cages (30 × 30 × 30 cm) where adult mosquitoes were allowed to emerge and given 10% glucose as a sugar source ad libitum.
Only mosquitoes of 2–5 days of age were used for the experiments. Before the experiments, mosquitoes were starved from sugar for 12–18 hours and from water for one hour. Hungry females were selected by applying a bottle with heated water (37–40 °C) to the cage. 40–50 hungry females were transferred to each paper cup using a mouth aspirator.
We performed membrane feeding assays with serum replacement as previously described. For each experiment, the selected pig sample was thawed and 1 ml of whole blood was centrifuged at 2100 rpm for 10 minutes. The serum volume was noted and replaced with the same amount of the sample pig-serum being tested. After this, tubes were inverted 10 times. Each sample was tested in triplicate.
In order to reduce potential confounding arising from variations in bloodmeal size, partially fed mosquitoes were discarded and only fully engorged females followed up for the mortality assessment. After each feeding experiment, the cups were placed on ice for 1–2 minutes to select and transfer fully engorged females.
Cups with fully engorged mosquitoes were kept at 24–26 °C and 65–70% relative humidity inside climate controlled incubators. Mosquitoes were maintained with 10% glucose solution using impregnated cotton. Mortality was recorded daily for 9 days by a person blinded to the allocation of the cups. Dead mosquitoes were removed from the cups daily.
Survival Kaplan-Meier analysis was performed in Addinsoft’s XLSTAT ® Version 2016.04.32229 (New York, NY, USA). Comparisons of survival patterns were done with Log-rank test using a 5% significance level adjusted for cluster design.

The subject of data set [5] is Anopheles gambiae. The arrangement: method as in PMID 25414262. To be noted: cited from earlier work.
For data set [6] the following is noted: cited from earlier work.
The next data set relates to CYP 3A4. Also noted: method as in PMID 19255936. The following applies: estimated; cited from earlier work.
The mark [7] stands for this setting: Pair 1: ivermectin 9.98 (IVM) vs 8.96 (KET) ng/ml in the fed sample.
The mark [8] stands for this setting: Pair 2: ivermectin 16.5 (IVM) vs 17.23 (KET) ng/ml in the fed sample.
[9] abbreviates: Pair 3: ivermectin 20.46 (IVM) vs 20.39 (KET) ng/ml in the fed sample.
The mark [10] stands for this setting: Pair 4: ivermectin 27.58 (IVM) vs […] (KET) ng/ml in the fed sample.

Molecules are shown by their SMILES. Values joined by “and” are separate entries in the source; they are usually repeats but may differ in a detail not shown here. Identical values can stand only once. “Also recorded” adds a separate entry of the source. Where only a bound is given, the exact number is not on record here.

Usually half-life stands for the time needed for the level to fall by half in the phase considered. As usually defined, the IC50 is the concentration at which inhibition is half-maximal.

Take `CCC(C)C1OC2(CCC1C)CC1CC(CC=C(C)C(OC3CC(OC)C(OC4CC(OC)C(O)C(C)O4)C(C)O3)C(C)C=CC=C3COC4C(O)C(C)=CC(C(=O)O1)C34O)O2` (stereo not shown) [Ivermectin]: in data set [1], the clinical adverse events result is on record as “No clinical adverse events were observed”. In data set [2] (listed as Ivermectin 1), the “AUC inf, Median (Range)” value is listed as 244 (1899) h·ng/mL; the “Cmax, Median (Range)” value is recorded as 8.7 (26.0) ng/mL; the “AUC > LD50, Median (Range)” value is reported as 23.7 (509.4) h·g/mL; the “Time > LD50, Median (Range)” value is on record as 4.6 (46.7) h. The “Time > LD50” value in data set [2] (listed as Ivermectin 1) worked out at 9.3 h. For the same compound, in data set [2] (listed as Ivermectin 2), the “AUC inf, Median (Range)” value is given as 1205.3 (349) h·ng/mL; the “Cmax, Median (Range)” value is listed as 18 (5.6) ng/mL; the “AUC > LD50, Median (Range)” value was 297.6 (142.6) h·g/mL; the “Time > LD50, Median (Range)” value is on record as 49.9 (9.1) h. In data set [2] (listed as Ivermectin 2), the “Time > LD50” value is 54.5 h and 45.4 h. Further, in data set [2] (listed as Ivermectin(combined)), the “AUC inf, Median (Range)” value is 862.7 (1899) h·ng/mL; the “Time > LD50” value was 46.7 h and 27.2 h and 0.0 h. For the same compound, in data set [2] (ketoconazole pre-treatment vs ivermectin alone, mini-pigs), the “increase in ivermectin time above LC50” value stood at 3 fold. Also, the “median Cmax” value in data set [2] (plasma ivermectin in mini-pigs, ivermectin alone (combined) vs ketoconazole pre-treatment, P = 0.033) was 14 ng/mL. The “total AUC” value in data set [2] (plasma ivermectin in mini-pigs, ivermectin alone (combined) vs ketoconazole pre-treatment, P = 0.067, not significant) was 862 ng·h/mL. In addition, in data set [3], the “ivermectin concentration in CSF” value is less than 0.5 ng/mL and the “number of CSF samples in which ivermectin was detectable” value came to 4. Also, in the data set on Anopheles gambiae [4] (setting [7]), the Mean survival was 6.73 (6.29–7.17) days and the “Time to median mortality” value is listed as 7 days. Moreover, in the data set with Anopheles gambiae [4] (setting [8]), the Mean survival is given as 5.11 (4.63–5.86) days and the “Time to median mortality” value worked out at 5 days. In the data set with Anopheles gambiae [4] (setting [9]), the Mean survival is given as 7.43 (7.11–7.75) days and the “Time to median mortality” value worked out at 7 days. Moreover, in the data set on Anopheles gambiae [4] (setting [10]), the Mean survival is reported as 5.28 (4.54–6.02) days and the “Time to median mortality” value is given as 5 days. For the same compound, the “10-day lethal concentration 50 (LC50)” value in the data set on Anopheles gambiae [5] (kills 50% of Anopheles gambiae in 10 days) is recorded as 6 ng/ml. For the same compound, the “minimum expected 10-day mortality” value in the data set with Anopheles gambiae [5] (mosquitoes imbibing blood containing 9.9 ng/ml of ivermectin, from predictive function) is on record as 66%. Besides, the “time for which concentrations that kill 50% of Anopheles gambiae in 10 days are sustained” value in data set [6] (after the single dose of 200 mcg/kg commonly used for NTDs, no reference given) is given as “around 72 hours”. In data set [6], the half-life is 18 h.
Consider `CC(=O)N1CCN(c2ccc(OCC3COC(Cn4ccnc4)(c4ccc(Cl)cc4Cl)O3)cc2)CC1` (stereo not shown) [ketoconazole], for which the IC50 in the data set with CYP 3A4 is […]. The “effect on mortality of Anopheles gambiae fed samples containing ivermectin” value in the data set on Anopheles gambiae [4] (ketoconazole at CYP inhibition concentrations, matched ivermectin concentrations (+/−1 ng/ml), all four pairs) is reported as “significantly increased the mortality”. Further, in the data set with Anopheles gambiae [4] (ketoconazole-only baseline pig sample vs fully drug-free sample, Log-rank P = 0.048, n = 222), the “effect on 10-day mortality of Anopheles gambiae” value is “did not increase the mortality”.
Regarding `CO[C@H]1/C=C/O[C@@]2(C)Oc3c(C)c(O)c4c(O)c(c(/C=N/N5CCN(C)CC5)c(O)c4c3C2=O)NC(=O)/C(C)=C\C=C\[C@H](C)[C@H](O)[C@@H](C)[C@@H](O)[C@@H](C)[C@H](OC(C)=O)[C@@H]1C` [rifampicin, Rifampicin], the “effect of pre-treatment on ivermectin absorption” value in data set [2] (rifampicin pre-treatment (CYP/P-gp induction), mini-pigs, oral ivermectin 800 mcg/kg) is “markedly impaired ivermectin absorption; also recorded: seriously hampered ivermectin absorption”.

Values taken from PMC5561046, “Cytochrome P450/ABC transporter inhibition simultaneously enhances ivermectin pharmacokinetics in the mammal host and pharmacodynamics in Anopheles gambiae” (Scientific Reports, 2017).
